Assay [1] deals with murine Ehrlich ascites cancer cells. The experiment in a line: Cell proliferation / cell death assay, Ehrlich ascites cancer cells. To be noted: 10-100 μM. The class given is cell-based. The procedure:
Human pancreatic cancer cell lines (Panc-1, MiaPaca2, BXPC3, Aspc 1), human hepatoma cell line (HuH7), human gastric cancer cell lines (AGS, MKN45), human colon cancer cell line (CoCM-1), human mammary cancer cell line (MCF-7), human neuroblastoma (SH-SY5Y), human prostate cancer cells (PC3), and murine Ehrlich ascites cancer cells and mouse 3T3-L1 fibroblasts were obtained from American Type Culture Collection (Rockville, Md., USA). The cancer cells were cultured in RPMI 1640 containing 10% fetal calf serum. Cultures were maintained at 37° C. in a humidified atmosphere of 5% CO2.
Cell proliferation assays were performed with the CellTiter 96 AQueous One Solution Cell Proliferation Assay kit according to the manufacturer's instructions (Promega, Madison, Wis., USA). Briefly, 5×10^3 cells/well in medium were placed onto 96-well plates. IGs were added to cellular cultures at final concentrations of 0, 1, 10, and 100 μM. Cultures were incubated for 3 days or 7 days and then added to 20 μL/well of CellTiter 96 AQueous One Solution Reagent, which contains a tetrazolium compound, 3-(4,5-dimethylthiazol-2-yl)-5-(3-carboxymethoxyphenyl)-2-(4-sulfophenyl)-2H-tetrazolium, an inner salt; MTS was added to the culture medium. After incubating the plate for 1 h in a CO2 incubator, absorbance at 490 nm was recorded with a 96-well plate reader.

The subject of assay [2] is db/db, obese-diabetic mice. Kind of assay: Intravenous administration of IG1, db/db mice. The class given is in vivo. The procedure:
Male C57BL/6 mice were housed individually and given free access to a standard diet (65% carbohydrate, 4% fat, and 24% protein) or a high-fat diet (Quick Fat; 60.2% carbohydrate, 15.3% fat, and 24.5% protein; Clea Japan, Tokyo, Japan), starting at 5 weeks of age, for 5 weeks. Db/db mice also were housed individually and given free access to a standard diet. C57BL/6 mice at 5 weeks of age, were received a single dose of 75 μg/g body weight streptozotoxin (STZ). 7 days after injections, the mice, whose fasting plasma glucose concentrations were over 400 mg/dl, were used as STZ-diabetic mice. […]
Frozen livers were homogenized, and triglycerides were extracted with CHCl3:CH3OH (2:1, vol:vol), dried and resuspended in 2-propanol (17). Triglyceride contents were measured using Lipidos liquid (TOYOBO, Osaka, Japan). […] Glycogen content was determined by the phenol-sulfuric acid spectrophotometric method at 490 nm (18) and expressed as micrograms of glycogen per milligram of liver.
Blood glucose was assayed with Glucose Ace (Sanwa Kagaku Kenkyusho, Nagoya, Japan). Serum insulin and leptin were determined with ELISA kits (Morinaga Institute of Biological Science, Yokohama, Japan). Serum adiponectin and tumor necrosis factor-α (TNF-α) concentrations were measured with an ELISA kit (Ohtsuka Pharmaceutical, Tokyo, Japan) and a TNF-α assay kit (Amersham Biosciences, Uppsala, Sweden), respectively. […]

`CCCCCCCCCCCCCCCC(=O)O[C@@H]1C(O)C(O)[C@H](O)C(O[C@H]2OC(CO)[C@@H](O)[C@H](O)C2N)C1O` (stereo in doubt) [IG1, 2-Amino-2-deoxy-α-D-glucopyranosyl-(1→6)-2-palmitoyl-D-myo-inositol]: the “rapid cancer cell death” value in assay [1] is on record as “rapid cancer cell death was demonstrated”. Moreover, the “hepatic and muscular glycogen synthesis” value in assay [2] (data not shown) was “increases hepatic and muscular glycogen synthesis”. Moreover, the plasma glucose concentrations result in assay [2] (intravenous) is given as “reduced plasma glucose concentrations”.

The values above are taken from patent US20100197625A1, “SYNTHETIC LIPOPHILIC INOSITOL GLYCANS FOR TREATMENT OF CANCER AND GLUCOSE-METABOLISM DISORDERS” (priority 2006, published 2010).
